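Here, GI50 denotes the concentration required for 50% inhibition of growth. TGI marks complete inhibition of growth.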
Key:
Assay in all cases: NCI-60 cell line screen, 384-well format
786-0 renal = test system: 786-0 renal
A498 renal = test system: A498 renal
A549 NSCLC = test system: A549 NSCLC
ACHN renal = test system: ACHN renal
BT-549 breast = test system: BT-549 breast
CAKI-1 renal = test system: CAKI-1 renal
CCRF-CEM leukemia = test system: CCRF-CEM leukemia
COLO 205 colon = test system: COLO 205 colon
DU-145 prostate = test system: DU-145 prostate
EKVX NSCLC = test system: EKVX NSCLC
HCC-2998 colon = test system: HCC-2998 colon
HCT-116 colon = test system: HCT-116 colon
HCT-15 colon = test system: HCT-15 colon
HL-60(TB) leukemia = test system: HL-60(TB) leukemia
HOP-62 NSCLC = test system: HOP-62 NSCLC
HOP-92 NSCLC = test system: HOP-92 NSCLC
HS 578T breast = test system: HS 578T breast
HT29 colon = test system: HT29 colon
IGROV1 ovarian = test system: IGROV1 ovarian
K-562 leukemia = test system: K-562 leukemia
KM12 colon = test system: KM12 colon
LOX IMVI melanoma = test system: LOX IMVI melanoma
M14 melanoma = test system: M14 melanoma
MALME-3M melanoma = test system: MALME-3M melanoma
MCF7 breast = test system: MCF7 breast
MDA-MB-231 breast = test system: MDA-MB-231 breast
MDA-MB-435 melanoma = test system: MDA-MB-435 melanoma
MDA-MB-468 breast = test system: MDA-MB-468 breast
MOLT-4 leukemia = test system: MOLT-4 leukemia
NCI-H226 lung = test system: NCI-H226 lung
NCI-H23 lung = test system: NCI-H23 lung
NCI-H322M lung = test system: NCI-H322M lung
NCI-H460 NSCLC = test system: NCI-H460 NSCLC
NCI-H522 lung = test system: NCI-H522 lung
NCI/ADR-RES ovarian = test system: NCI/ADR-RES ovarian
OVCAR-3 ovarian = test system: OVCAR-3 ovarian
OVCAR-4 ovarian = test system: OVCAR-4 ovarian
OVCAR-5 ovarian = test system: OVCAR-5 ovarian
OVCAR-8 ovarian = test system: OVCAR-8 ovarian
PC-3 prostate = test system: PC-3 prostate
RPMI-8226 leukemia = test system: RPMI-8226 leukemia
RXF 393 renal = test system: RXF 393 renal
SF-268 CNS = test system: SF-268 CNS
SF-295 CNS = test system: SF-295 CNS
SF-539 CNS = test system: SF-539 CNS
SK-MEL-2 melanoma = test system: SK-MEL-2 melanoma
SK-MEL-28 melanoma = test system: SK-MEL-28 melanoma
SK-MEL-5 melanoma = test system: SK-MEL-5 melanoma
SK-OV-3 ovarian = test system: SK-OV-3 ovarian
SN12C renal = test system: SN12C renal
SNB-19 CNS = test system: SNB-19 CNS
SNB-75 CNS = test system: SNB-75 CNS
SW-620 colon = test system: SW-620 colon
T-47D breast = test system: T-47D breast
TK-10 renal = test system: TK-10 renal
U251 glioblastoma = test system: U251 glioblastoma
UACC-257 melanoma = test system: UACC-257 melanoma
UACC-62 melanoma = test system: UACC-62 melanoma
UO-31 renal = test system: UO-31 renal

`CC(C)NC[C@@H](C(=O)N1CCN(c2ncnc3c2[C@H](C)C[C@H]3O)CC1)c1ccc(Cl)cc1` was tested. Which GI50 ([…]-0 renal) did it give?
The GI50 was 1.49 µM.

And the TGI (786-0 renal)?
Its TGI is 21 µM.

What about the GI50 (A498 renal) of the same molecule?
Its GI50 is 0.589 µM.

And the TGI (A498 renal)?
Its TGI is 11.3 µM.

What about the GI50 (A549 NSCLC) of the same molecule?
Its GI50 is 18.2 µM.

What about the TGI (A549 NSCLC) of the same molecule?
The TGI was > 100 µM.

And the GI50 (ACHN renal)?
Its GI50 is 25.1 µM.

What about the TGI (ACHN renal) of the same molecule?
Its TGI is > 100 µM.

And the GI50 (BT-549 breast)?
The GI50 was 0.636 µM.

And the TGI (BT-549 breast)?
The TGI was 11.8 µM.

And the GI50 (CAKI-1 renal)?
Its GI50 is 11.7 µM.

And the TGI (CAKI-1 renal)?
Its TGI is 75.5 µM.

What about the GI50 (CCRF-CEM leukemia) of the same molecule?
The GI50 was 0.854 µM.

What about the TGI (CCRF-CEM leukemia) of the same molecule?
The TGI was 12 µM.

And the GI50 (COLO 205 colon)?
The GI50 was 4.88 µM.

And the TGI (COLO 205 colon)?
Its TGI is 24.5 µM.

And the GI50 (DU-145 prostate)?
Its GI50 is 25.8 µM.

What about the TGI (DU-145 prostate) of the same molecule?
Its TGI is > 100 µM.

What about the GI50 (EKVX NSCLC) of the same molecule?
The GI50 was 10.6 µM.

And the TGI (EKVX NSCLC)?
The TGI was 52.4 µM.

And the GI50 (HCC-2998 colon)?
The GI50 was 3.41 µM.

What about the TGI (HCC-2998 colon) of the same molecule?
The TGI was 24.1 µM.

And the GI50 (HCT-116 colon)?
The GI50 was 18.2 µM.

And the TGI (HCT-116 colon)?
Its TGI is 96.8 µM.

What about the GI50 (HCT-15 colon) of the same molecule?
The GI50 was 26.2 µM.

What about the TGI (HCT-15 colon) of the same molecule?
The TGI was > 100 µM.

What about the GI50 (HL-60(TB) leukemia) of the same molecule?
Its GI50 is 17.3 µM.

And the TGI (HL-60(TB) leukemia)?
The TGI was 31.2 µM.

And the GI50 (HOP-62 NSCLC)?
The GI50 was 34.1 µM.

What about the TGI (HOP-62 NSCLC) of the same molecule?
Its TGI is > 100 µM.

What about the GI50 (HOP-92 NSCLC) of the same molecule?
The GI50 was 11.7 µM.

What about the TGI (HOP-92 NSCLC) of the same molecule?
The TGI was 46.1 µM.

And the GI50 (HS 578T breast)?
Its GI50 is 0.771 µM.

What about the TGI (HS 578T breast) of the same molecule?
Its TGI is 14.6 µM.

And the GI50 (HT29 colon)?
The GI50 was 15.1 µM.

And the TGI (HT29 colon)?
The TGI was 52.5 µM.

What about the GI50 (IGROV1 ovarian) of the same molecule?
The GI50 was 0.235 µM.

And the TGI (IGROV1 ovarian)?
The TGI was 2.69 µM.

What about the GI50 (K-562 leukemia) of the same molecule?
The GI50 was 25.4 µM.

What about the TGI (K-562 leukemia) of the same molecule?
Its TGI is > 100 µM.

And the GI50 (KM12 colon)?
The GI50 was 1.45 µM.

What about the TGI (KM12 colon) of the same molecule?
The TGI was 18.8 µM.

What about the GI50 (LOX IMVI melanoma) of the same molecule?
Its GI50 is 34.5 µM.

What about the TGI (LOX IMVI melanoma) of the same molecule?
The TGI was > 100 µM.

And the GI50 (M14 melanoma)?
The GI50 was 14.4 µM.

What about the TGI (M14 melanoma) of the same molecule?
Its TGI is 34 µM.

And the GI50 (MALME-3M melanoma)?
The GI50 was 7.94 µM.

What about the TGI (MALME-3M melanoma) of the same molecule?
Its TGI is 21.6 µM.

What about the GI50 (MCF7 breast) of the same molecule?
The GI50 was 0.919 µM.

And the TGI (MCF7 breast)?
The TGI was 15.5 µM.

What about the GI50 (MDA-MB-231 breast) of the same molecule?
The GI50 was 44.9 µM.

And the TGI (MDA-MB-231 breast)?
Its TGI is > 100 µM.

What about the GI50 (MDA-MB-435 melanoma) of the same molecule?
Its GI50 is 23.9 µM.

And the TGI (MDA-MB-435 melanoma)?
The TGI was > 100 µM.

And the GI50 (MDA-MB-468 breast)?
Its GI50 is 0.494 µM.

What about the TGI (MDA-MB-468 breast) of the same molecule?
Its TGI is 4.16 µM.

And the GI50 (MOLT-4 leukemia)?
The GI50 was 0.259 µM.

What about the TGI (MOLT-4 leukemia) of the same molecule?
The TGI was 1.77 µM.

And the GI50 (NCI-H226 lung)?
The GI50 was 21.2 µM.

What about the TGI (NCI-H226 lung) of the same molecule?
Its TGI is > 100 µM.

And the GI50 (NCI-H23 lung)?
Its GI50 is 16.2 µM.

And the TGI (NCI-H23 lung)?
Its TGI is 57.1 µM.

What about the GI50 (NCI-H322M lung) of the same molecule?
The GI50 was 18.4 µM.

What about the TGI (NCI-H322M lung) of the same molecule?
Its TGI is > 100 µM.

What about the GI50 (NCI-H460 NSCLC) of the same molecule?
Its GI50 is 1.31 µM.

What about the TGI (NCI-H460 NSCLC) of the same molecule?
Its TGI is > 100 µM.

What about the GI50 (NCI-H522 lung) of the same molecule?
The GI50 was 17 µM.

And the TGI (NCI-H522 lung)?
Its TGI is 49.3 µM.

And the GI50 (NCI/ADR-RES ovarian)?
Its GI50 is > 100 µM.

And the TGI (NCI/ADR-RES ovarian)?
Its TGI is > 100 µM.

What about the GI50 (OVCAR-3 ovarian) of the same molecule?
Its GI50 is 10.5 µM.

And the TGI (OVCAR-3 ovarian)?
The TGI was 64.5 µM.

What about the GI50 (OVCAR-4 ovarian) of the same molecule?
The GI50 was 76.8 µM.

And the TGI (OVCAR-4 ovarian)?
Its TGI is > 100 µM.

And the GI50 (OVCAR-5 ovarian)?
Its GI50 is 18.4 µM.

What about the TGI (OVCAR-5 ovarian) of the same molecule?
Its TGI is > 100 µM.

And the GI50 (OVCAR-8 ovarian)?
The GI50 was 45.9 µM.

And the TGI (OVCAR-8 ovarian)?
Its TGI is > 100 µM.

What about the GI50 (PC-3 prostate) of the same molecule?
The GI50 was 1.07 µM.

And the TGI (PC-3 prostate)?
Its TGI is 35.4 µM.

What about the GI50 (RPMI-8226 leukemia) of the same molecule?
Its GI50 is 10.5 µM.

What about the TGI (RPMI-8226 leukemia) of the same molecule?
The TGI was 23.9 µM.

And the GI50 (RXF 393 renal)?
The GI50 was 0.3 µM.

What about the TGI (RXF 393 renal) of the same molecule?
Its TGI is 4.41 µM.

And the GI50 (SF-268 CNS)?
The GI50 was 29.6 µM.

What about the TGI (SF-268 CNS) of the same molecule?
The TGI was > 100 µM.

What about the GI50 (SF-295 CNS) of the same molecule?
Its GI50 is 2.19 µM.

What about the TGI (SF-295 CNS) of the same molecule?
Its TGI is 32.7 µM.

And the GI50 (SF-539 CNS)?
Its GI50 is 0.587 µM.

What about the TGI (SF-539 CNS) of the same molecule?
The TGI was 22.5 µM.

And the GI50 (SK-MEL-2 melanoma)?
Its GI50 is 11.2 µM.

What about the TGI (SK-MEL-2 melanoma) of the same molecule?
The TGI was 24.5 µM.

What about the GI50 (SK-MEL-28 melanoma) of the same molecule?
The GI50 was 11.4 µM.

What about the TGI (SK-MEL-28 melanoma) of the same molecule?
The TGI was 41.7 µM.

What about the GI50 (SK-MEL-5 melanoma) of the same molecule?
The GI50 was 12 µM.

What about the TGI (SK-MEL-5 melanoma) of the same molecule?
The TGI was 25.2 µM.

What about the GI50 (SK-OV-3 ovarian) of the same molecule?
Its GI50 is 0.912 µM.

What about the TGI (SK-OV-3 ovarian) of the same molecule?
Its TGI is 23.6 µM.

And the GI50 (SN12C renal)?
Its GI50 is 23.8 µM.

And the TGI (SN12C renal)?
Its TGI is > 100 µM.

And the GI50 (SNB-19 CNS)?
Its GI50 is 7.47 µM.

What about the TGI (SNB-19 CNS) of the same molecule?
The TGI was > 100 µM.

What about the GI50 (SNB-75 CNS) of the same molecule?
The GI50 was 0.676 µM.

And the TGI (SNB-75 CNS)?
Its TGI is 15.3 µM.

And the GI50 (SW-620 colon)?
Its GI50 is 49.9 µM.

What about the TGI (SW-620 colon) of the same molecule?
The TGI was > 100 µM.

And the GI50 (T-47D breast)?
The GI50 was 0.119 µM.

And the TGI (T-47D breast)?
Its TGI is 0.857 µM.

What about the GI50 (TK-10 renal) of the same molecule?
The GI50 was 5.49 µM.

What about the TGI (TK-10 renal) of the same molecule?
Its TGI is 36.9 µM.

And the GI50 (U251 glioblastoma)?
Its GI50 is 10.2 µM.

What about the TGI (U251 glioblastoma) of the same molecule?
Its TGI is > 100 µM.

What about the GI50 (UACC-257 melanoma) of the same molecule?
Its GI50 is 14 µM.

What about the TGI (UACC-257 melanoma) of the same molecule?
Its TGI is 27.1 µM.

What about the GI50 (UACC-62 melanoma) of the same molecule?
Its GI50 is 10.9 µM.

And the TGI (UACC-62 melanoma)?
Its TGI is 30.4 µM.

What about the GI50 (UO-31 renal) of the same molecule?
Its GI50 is 35 µM.

What about the TGI (UO-31 renal) of the same molecule?
Its TGI is > 100 µM.
